# Experiments:
# [1] = molecular target: hSERT (Homo sapiens, UniProt P31645); conditions: 22 °C
# [2] = molecular target: T1, hSERT P560G (Homo sapiens, UniProt P31645, P560G); test: APP^+ uptake, hSERT P560G; format: cell-based; conditions: S2 site mutant, read-out: SYR IC50 for Transport
# T1 construct: forward and reverse primers were used to amplify a full-length hSERT; expressed in transfected cells; host or cells: HeLa cells, transient, pcDNA3.1
# [3] = molecular target: T2, hSERT D328A (Homo sapiens, UniProt P31645, D328A); test: ASP^+ binding, hSERT D328A; conditions: S2 site mutant, read-out: SYR IC50 for Binding
# T2 construct: forward and reverse primers were used to amplify a full-length hSERT; expressed in transfected cells; host or cells: HeLa cells, transient, pcDNA3.1
# [4] = test system: CUMS mice; test: Novelty suppressed feeding test (NSFT) in CUMS mice; format: in vivo, mouse
# Experimental: C57BL/6 adult (6–8 weeks, body weight, 18–22 g) male mice were maintained and handled in a standard condition at the Experimental Animal Center of Southern Medical University (Guangzhou, China). Animal use was approved by the Animal Use and Care Committee of Southern Medical University (approved code: SMUL2021177, approved date: 12 December 2021). The CUMS procedure was carried out according to a protocol described previously. Except for those in the control group, mice were randomly exposed to two mild unpredictable stressors per day for 3 weeks. The stressors included water deprivation, restraint, tilted cage, wet/no bedding, rotation, peppermint, noise, and inverted light off/on. Mice in the control group were group housed without any stressors throughout the procedure. […] NSFT was performed after 16 h food deprivation, as described previously. The mouse was placed in an open field (24 × 40 × 14 cm), where a new chow was put in the center, and the latency time to bite food was counted over 10 min. Home cage feeding within a 20 min period was measured after the test. FST was carried out according to a protocol described previously. The mouse was placed into a beaker (Bomex, Beijing, China) with a height of 18 cm filled with water (22 ± 1 °C) for 6 min. The immobile time was measured during minutes 2–6. TST was performed according to a previous description. The mouse was suspended from a hook that hung from a suspension bar by placing a piece of adhesive tape on its tail about 1 cm away from the tip. The immobile time during minutes 2–6 was measured.
# [5] = test system: SERT S277C/X5C; test: Cysteine accessibility, cytoplasmic pathway: MTSEA reactivity with S277C/X5C; format: cell-based; conditions: 10 μM ligand, digitonin-permeabilized cells, compared with the control
# [6] = molecular target: T3, hSERT S559A (Homo sapiens, UniProt P31645, S559A); test: ASP^+ binding, hSERT S559A; conditions: S2 site mutant, read-out: SYR IC50 for Binding
# T3 construct: forward and reverse primers were used to amplify a full-length hSERT; expressed in transfected cells; host or cells: HeLa cells, transient, pcDNA3.1
# [7] = molecular target: T4, hSERT Q111N (Homo sapiens, UniProt P31645, Q111N); test: APP^+ uptake, hSERT Q111N; format: cell-based; conditions: S2 site mutant, read-out: SYR IC50 for Transport
# T4 construct: forward and reverse primers were used to amplify a full-length hSERT; expressed in transfected cells; host or cells: HeLa cells, transient, pcDNA3.1
# [8] = molecular target: T5, hSERT G498T (Homo sapiens, UniProt P31645, G498T); test: ASP^+ binding, hSERT G498T; conditions: S2 site mutant, read-out: SYR IC50 for Binding
# T5 construct: forward and reverse primers were used to amplify a full-length hSERT; expressed in transfected cells; host or cells: HeLa cells, transient, pcDNA3.1
# [9] = molecular target: T6, hSERT T497A (Homo sapiens, UniProt P31645, T497A); test: APP^+ uptake, hSERT T497A; format: cell-based; conditions: S2 site mutant, read-out: SYR IC50 for Transport
# T6 construct: forward and reverse primers were used to amplify a full-length hSERT; expressed in transfected cells; host or cells: HeLa cells, transient, pcDNA3.1
# [10] = molecular target: T7, hSERT F556A (Homo sapiens, UniProt P31645, F556A); test: ASP^+ binding, hSERT F556A; conditions: S2 site mutant, read-out: SYR IC50 for Binding
# T7 construct: forward and reverse primers were used to amplify a full-length hSERT; expressed in transfected cells; host or cells: HeLa cells, transient, pcDNA3.1
# [11] = test system: hSERT Q111N, G498T, P561G, Q562N; test: ASP^+ binding, four S2 mutants compared with WT; design: species or system human; conditions: P561G, and Q562N
# Experimental: (§1) HeLa cells were cultured in Dulbecco’s Modified Eagle’s Medium supplemented with 10% fetal bovine serum, 100 units/mL penicillin, and 100 μg/mL streptomycin at 37 °C in a humidified 5% CO2 incubator. Cells grown at ~70% confluence in a 6 cm culture dish were transfected with hSERT cDNA in pcDNA3.1 by lipofectamine 2000. Transfected cells were incubated for 12 h at 37 °C with 5% CO2 and then transferred into 96-well plates. After being grown for an additional 12–16 h, the cells were then assayed for APP^+ uptake or ASP^+ binding.
# ASP^+ binding to SERT expressed on the cell surface was measured with digitonin-permeabilized cells as described previously. The cells expressing WT or mutants of hSERT were incubated with 10 μM ASP^+ in the presence of 25 μg/mL digitonin at 22 °C for 5 min. After removing excess ASP^+ by 3× rapid washing, ASP^+ fluorescence retained in the cell membrane was determined by fluorescence spectrometry.
# hSERT mutants were generated using the Mut Express II Fast Mutagenesis kit (Vazyme, Nanjing, China). Briefly, forward and reverse primers were used to amplify a full-length hSERT. The PCR products were then digested with restriction enzymes, excised from agarose gels, and ligated into pcDNA3.1. All mutations were confirmed by full-length DNA sequencing.
# [12] = molecular target: T8, hSERT S438T (Homo sapiens, UniProt P31645, S438T); test: APP^+ uptake, hSERT S438T; format: cell-based; conditions: S1 site mutant, read-out: SYR IC50 for Transport
# T8 construct: forward and reverse primers were used to amplify a full-length hSERT; expressed in transfected cells; host or cells: HeLa
# Experimental: as §1
# Measurement of transport or ligand binding activity of SERT was performed by using its fluorescent substrate (APP^+) or ligand (ASP^+), respectively. The cells transiently expressing WT or mutants of hSERT were applied for various treatments. Briefly, the cells were washed twice with 100 μL KRH buffer containing 20 mM HEPES (Neofroxx, Einhausen, Germany), pH 7.4, 120 mM NaCl, 1.3 mM KCl, 2.2 mM CaCl2, 1.2 mM MgSO4, and 0.1% (w/v) glucose. APP^+ uptake was measured by adding 100 μL KRH buffer containing 2 μM APP^+ and incubating for 5 min at 22 °C. Excess APP^+ was then removed by 3× rapid washing with 100 μL KRH buffer each time. The extent of APP^+ accumulated in the cells was determined by fluorescence spectrometry with an Infinite 200 Pro microplate reader (Tecan, Männedorf, Switzerland). […]
# [13] = molecular target: T9, hSERT Q562N (Homo sapiens, UniProt P31645, Q562N); test: ASP^+ binding, hSERT Q562N; conditions: S2 site mutant, read-out: SYR IC50 for Binding
# T9 construct: forward and reverse primers were used to amplify a full-length hSERT; expressed in transfected cells; host or cells: HeLa
# [14] = molecular target: T2, hSERT D328A; test: APP^+ uptake, hSERT D328A; format: cell-based; conditions: S2 site mutant, read-out: SYR IC50 for Transport
# T2 sequence (P31645 whole entry D328A): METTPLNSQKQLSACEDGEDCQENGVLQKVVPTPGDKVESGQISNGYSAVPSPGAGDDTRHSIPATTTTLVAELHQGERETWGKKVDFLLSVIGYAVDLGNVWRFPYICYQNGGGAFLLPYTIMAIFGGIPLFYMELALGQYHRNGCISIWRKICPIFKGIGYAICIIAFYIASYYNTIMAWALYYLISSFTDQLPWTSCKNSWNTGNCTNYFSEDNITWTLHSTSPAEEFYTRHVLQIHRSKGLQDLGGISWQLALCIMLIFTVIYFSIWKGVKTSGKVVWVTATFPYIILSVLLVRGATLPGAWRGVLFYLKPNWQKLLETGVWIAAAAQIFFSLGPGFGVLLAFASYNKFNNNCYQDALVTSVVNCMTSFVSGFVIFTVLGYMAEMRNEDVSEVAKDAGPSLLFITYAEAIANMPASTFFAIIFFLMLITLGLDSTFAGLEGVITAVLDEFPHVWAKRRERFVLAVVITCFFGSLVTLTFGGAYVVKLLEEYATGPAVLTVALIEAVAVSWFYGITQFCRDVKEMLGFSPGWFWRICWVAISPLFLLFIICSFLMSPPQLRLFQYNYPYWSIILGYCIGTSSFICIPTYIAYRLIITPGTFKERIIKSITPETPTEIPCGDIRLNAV
# hSERT, sequence (P31645 whole entry): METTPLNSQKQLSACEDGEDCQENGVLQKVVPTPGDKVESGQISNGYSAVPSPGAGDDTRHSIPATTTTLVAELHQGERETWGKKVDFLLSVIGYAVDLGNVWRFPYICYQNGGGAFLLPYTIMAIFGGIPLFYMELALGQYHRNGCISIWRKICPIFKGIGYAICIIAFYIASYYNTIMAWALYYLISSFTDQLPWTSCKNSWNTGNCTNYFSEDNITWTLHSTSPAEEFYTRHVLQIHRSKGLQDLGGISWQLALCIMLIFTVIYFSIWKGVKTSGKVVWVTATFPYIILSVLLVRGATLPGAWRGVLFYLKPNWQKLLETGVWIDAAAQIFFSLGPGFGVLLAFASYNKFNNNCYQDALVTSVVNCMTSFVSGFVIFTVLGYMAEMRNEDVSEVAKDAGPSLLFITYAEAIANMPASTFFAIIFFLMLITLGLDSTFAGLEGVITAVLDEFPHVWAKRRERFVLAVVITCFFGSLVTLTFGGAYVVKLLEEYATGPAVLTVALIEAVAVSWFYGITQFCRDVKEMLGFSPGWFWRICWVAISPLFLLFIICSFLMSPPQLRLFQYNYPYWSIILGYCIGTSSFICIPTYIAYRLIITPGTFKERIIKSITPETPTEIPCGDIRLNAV
# T7 sequence (P31645 whole entry F556A): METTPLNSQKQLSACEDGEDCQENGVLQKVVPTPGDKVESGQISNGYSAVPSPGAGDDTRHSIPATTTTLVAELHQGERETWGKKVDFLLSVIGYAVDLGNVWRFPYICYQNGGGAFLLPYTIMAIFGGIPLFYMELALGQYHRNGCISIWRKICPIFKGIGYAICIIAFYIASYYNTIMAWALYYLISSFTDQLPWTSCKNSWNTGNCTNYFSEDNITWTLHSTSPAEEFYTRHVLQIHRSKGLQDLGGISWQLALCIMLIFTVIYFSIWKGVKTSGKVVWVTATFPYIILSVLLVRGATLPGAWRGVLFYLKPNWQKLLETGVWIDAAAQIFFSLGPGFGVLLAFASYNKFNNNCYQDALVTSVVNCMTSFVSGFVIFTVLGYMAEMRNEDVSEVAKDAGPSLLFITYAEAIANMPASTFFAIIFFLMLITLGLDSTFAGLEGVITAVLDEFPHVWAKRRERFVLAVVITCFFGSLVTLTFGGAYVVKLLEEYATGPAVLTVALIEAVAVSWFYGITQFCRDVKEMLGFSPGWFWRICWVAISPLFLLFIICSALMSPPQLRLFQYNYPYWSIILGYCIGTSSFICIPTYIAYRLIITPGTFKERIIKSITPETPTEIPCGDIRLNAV
# T9 sequence (P31645 whole entry Q562N): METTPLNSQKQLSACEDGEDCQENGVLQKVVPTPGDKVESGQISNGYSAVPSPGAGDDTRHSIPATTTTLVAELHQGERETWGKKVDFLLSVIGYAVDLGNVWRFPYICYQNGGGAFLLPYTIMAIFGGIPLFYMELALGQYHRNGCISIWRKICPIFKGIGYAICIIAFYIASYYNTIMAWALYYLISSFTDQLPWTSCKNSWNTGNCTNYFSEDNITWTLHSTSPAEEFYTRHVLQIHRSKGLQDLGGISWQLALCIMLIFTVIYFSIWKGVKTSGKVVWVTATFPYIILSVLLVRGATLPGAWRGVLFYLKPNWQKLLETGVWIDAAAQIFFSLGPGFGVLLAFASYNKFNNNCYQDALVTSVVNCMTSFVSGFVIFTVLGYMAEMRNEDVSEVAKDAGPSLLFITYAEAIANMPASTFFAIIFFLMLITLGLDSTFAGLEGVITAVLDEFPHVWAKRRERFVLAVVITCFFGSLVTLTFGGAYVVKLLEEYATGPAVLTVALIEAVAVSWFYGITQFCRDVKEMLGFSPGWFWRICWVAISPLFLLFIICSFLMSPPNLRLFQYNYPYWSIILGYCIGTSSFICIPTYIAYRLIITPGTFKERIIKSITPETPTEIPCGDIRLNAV
# T5 sequence (P31645 whole entry G498T): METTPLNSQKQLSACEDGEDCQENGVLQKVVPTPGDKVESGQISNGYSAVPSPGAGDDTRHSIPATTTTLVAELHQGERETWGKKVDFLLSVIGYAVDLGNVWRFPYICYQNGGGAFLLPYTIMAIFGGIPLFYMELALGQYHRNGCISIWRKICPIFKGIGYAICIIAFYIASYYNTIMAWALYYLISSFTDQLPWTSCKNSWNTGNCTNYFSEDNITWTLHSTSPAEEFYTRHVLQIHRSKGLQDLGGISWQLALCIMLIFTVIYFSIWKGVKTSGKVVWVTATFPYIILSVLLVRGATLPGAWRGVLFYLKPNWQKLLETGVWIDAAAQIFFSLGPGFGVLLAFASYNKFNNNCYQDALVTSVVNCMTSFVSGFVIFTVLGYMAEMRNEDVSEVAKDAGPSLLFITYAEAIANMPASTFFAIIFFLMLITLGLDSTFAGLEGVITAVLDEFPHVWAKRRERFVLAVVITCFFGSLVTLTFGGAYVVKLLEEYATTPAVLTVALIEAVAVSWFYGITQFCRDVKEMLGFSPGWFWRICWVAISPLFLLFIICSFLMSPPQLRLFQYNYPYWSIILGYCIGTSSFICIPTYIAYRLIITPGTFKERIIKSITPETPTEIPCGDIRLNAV
# T3 sequence (P31645 whole entry S559A): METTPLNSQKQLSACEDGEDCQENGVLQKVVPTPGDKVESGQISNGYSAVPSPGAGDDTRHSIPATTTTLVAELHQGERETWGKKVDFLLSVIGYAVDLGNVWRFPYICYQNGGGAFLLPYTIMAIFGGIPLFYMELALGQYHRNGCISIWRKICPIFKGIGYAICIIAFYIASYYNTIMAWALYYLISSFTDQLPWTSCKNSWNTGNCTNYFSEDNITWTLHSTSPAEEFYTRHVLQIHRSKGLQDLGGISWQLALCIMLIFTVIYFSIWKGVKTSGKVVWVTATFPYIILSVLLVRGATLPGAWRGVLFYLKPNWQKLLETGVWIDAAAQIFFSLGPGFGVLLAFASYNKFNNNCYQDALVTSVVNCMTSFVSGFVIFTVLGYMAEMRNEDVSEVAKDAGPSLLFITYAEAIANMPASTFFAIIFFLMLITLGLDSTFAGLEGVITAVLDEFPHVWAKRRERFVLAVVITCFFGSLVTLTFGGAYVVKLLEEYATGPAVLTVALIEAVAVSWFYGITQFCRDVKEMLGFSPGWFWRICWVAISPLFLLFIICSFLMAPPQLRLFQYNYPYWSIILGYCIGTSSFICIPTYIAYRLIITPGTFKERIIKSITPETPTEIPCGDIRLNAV
# T1 sequence (P31645 whole entry P560G): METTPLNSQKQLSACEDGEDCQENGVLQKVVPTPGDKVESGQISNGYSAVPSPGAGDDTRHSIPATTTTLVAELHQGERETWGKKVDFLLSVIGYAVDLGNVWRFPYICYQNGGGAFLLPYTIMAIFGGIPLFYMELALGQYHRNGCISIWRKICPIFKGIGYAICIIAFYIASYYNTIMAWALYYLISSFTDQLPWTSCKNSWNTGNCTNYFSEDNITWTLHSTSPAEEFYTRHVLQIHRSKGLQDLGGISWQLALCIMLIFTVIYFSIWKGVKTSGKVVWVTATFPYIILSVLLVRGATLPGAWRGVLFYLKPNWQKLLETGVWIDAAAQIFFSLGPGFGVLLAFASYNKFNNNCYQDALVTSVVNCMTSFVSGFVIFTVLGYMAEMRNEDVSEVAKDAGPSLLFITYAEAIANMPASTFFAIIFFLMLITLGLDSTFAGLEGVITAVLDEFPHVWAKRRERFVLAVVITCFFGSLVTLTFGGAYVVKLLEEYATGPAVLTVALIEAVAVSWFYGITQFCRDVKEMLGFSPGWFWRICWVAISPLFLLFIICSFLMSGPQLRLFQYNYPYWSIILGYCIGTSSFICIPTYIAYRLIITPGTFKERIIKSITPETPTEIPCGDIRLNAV
# T8 sequence (P31645 whole entry S438T): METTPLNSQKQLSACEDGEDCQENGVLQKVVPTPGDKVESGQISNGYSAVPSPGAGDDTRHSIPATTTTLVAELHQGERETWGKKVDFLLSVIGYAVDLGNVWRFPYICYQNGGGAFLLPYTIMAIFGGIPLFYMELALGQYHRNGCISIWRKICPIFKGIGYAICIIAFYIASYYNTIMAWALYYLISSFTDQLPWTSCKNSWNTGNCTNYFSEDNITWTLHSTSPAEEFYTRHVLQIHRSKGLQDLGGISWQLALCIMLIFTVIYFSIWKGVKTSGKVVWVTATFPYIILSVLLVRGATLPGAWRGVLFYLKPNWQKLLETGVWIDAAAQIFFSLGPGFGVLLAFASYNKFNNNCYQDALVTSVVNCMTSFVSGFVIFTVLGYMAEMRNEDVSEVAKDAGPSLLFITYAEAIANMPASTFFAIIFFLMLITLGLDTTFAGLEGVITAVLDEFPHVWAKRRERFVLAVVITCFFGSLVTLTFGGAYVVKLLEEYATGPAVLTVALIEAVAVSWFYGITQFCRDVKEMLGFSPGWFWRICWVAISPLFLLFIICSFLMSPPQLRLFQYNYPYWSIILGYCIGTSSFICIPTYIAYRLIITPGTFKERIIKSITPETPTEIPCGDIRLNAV
structure (smiles),measurement,setting,value
"COc1cc([C@@H]2OC[C@@H]3[C@H]2CO[C@H]3c2cc(OC)c(O)c(OC)c2)cc(OC)c1O [SYR, (-)-syringaresinol]",effect on 5-HT-induced APP^+ efflux,[1]; 10 μM + 10 μM 5-HT,effectively blocked
same,effect on basal APP^+ efflux,"[1]; 10 μM, cells preloaded with APP^+",not by SYR
same,IC50,[2],5.99 ± 0.96 µM
same,IC50,[3],39.2 ± 0.78 µM
same,reversal of behavioral abnormalities in NSFT,"[4]; 5 mg/kg, i.p., once per day day 7 to 21",did not exhibit a significant response
same,effect in NSFT,[4]; 10 or 20 mg/kg (i.p.),remarkable antidepressant-like effects
same,rate constant of MTSEA reactivity with S277C/X5C,[5],decreased
same,IC50,[6],36.8 ± 2.49 µM
same,IC50,[7],17.7 ± 0.45 µM
same,IC50,[8],91 ± 6.29 µM
same,IC50,[9],10.6 ± 2.4 µM
same,IC50,[10],21.6 ± 1.2 µM
same,SYR IC50 for ASP^+ binding relative to WT,[11],≥ 100 fold
same,IC50,[12],910 ± 20 nM
same,IC50,[13],99.9 ± 2.04 µM
same,IC50,[14],19.6 ± 1.21 µM
